From publication PMC8781629, “Identification of an Amylomaltase from the Halophilic Archaeon Haloquadratum walsbyi by Functional Metagenomics: Structural and Functional Insights” (Life, 2022)

Target: T1, Hw-A (H. walsbyi amylomaltase) (Haloquadratum walsbyi, UniProt Q18H55)
T1 construct: gene malQ; full length plus 21 vector residues incl; N-terminal His6 tag (p15TV-L), E. coli Origami (DE3), about 67 kDa, tag not reported cut
Experiment: starch transglycosylation, decrease of starch-iodine absorbance at […] nm
Type: biochemical
Settings: acceptor substrate (best of those tested), 0.05%; donor 0.15% starch; 50 mM sodium phosphate pH 7, 1 M NaCl, 40 °C, 1 h

T1 sequence (Q18H55 entry or part of it): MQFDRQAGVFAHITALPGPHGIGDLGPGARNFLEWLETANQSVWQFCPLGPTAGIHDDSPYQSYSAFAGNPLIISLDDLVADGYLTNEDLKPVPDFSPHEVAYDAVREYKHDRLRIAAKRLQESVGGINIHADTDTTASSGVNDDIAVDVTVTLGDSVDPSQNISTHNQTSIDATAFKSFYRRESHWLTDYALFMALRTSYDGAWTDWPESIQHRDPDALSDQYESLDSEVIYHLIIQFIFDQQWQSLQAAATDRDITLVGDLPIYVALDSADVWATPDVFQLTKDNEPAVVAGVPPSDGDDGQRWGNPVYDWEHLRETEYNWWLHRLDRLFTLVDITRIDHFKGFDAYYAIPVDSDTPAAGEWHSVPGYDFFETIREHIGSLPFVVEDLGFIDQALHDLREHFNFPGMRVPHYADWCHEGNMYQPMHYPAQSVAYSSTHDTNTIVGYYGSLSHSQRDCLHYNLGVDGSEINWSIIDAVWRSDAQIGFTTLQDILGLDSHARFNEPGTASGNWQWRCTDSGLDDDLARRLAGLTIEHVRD

OC[C@H]1O[C@H](O[C@H]2[C@H](O)[C@@H](O)[C@@H](O[C@H]3[C@H](O)[C@@H](O)C(O)O[C@@H]3CO)O[C@@H]2CO)[C@H](O)[C@@H](O)[C@@H]1O (stereo partly shown) [maltotriose]
starch transglycosylation, decrease of starch-iodine absorbance at 620 nm: The assays indicated maltotriose as the best acceptor for starch degradation
